For this series, the system named is HEK293T cells. The series is described as follows: HEK293T cell viability (CellTiter-Blue, 24 hr). Type of series: cell-based. The note with it: 24 hr. The method, then:
HEK293T cells were grown in DMEM (Sigma) complete media containing 10% FBS, 10 units/ml penicillin (Invitrogen), and 10 μg/ml streptomycin (Invitrogen). Cells were plated at a density of 30,000 cells per well in 96-well black plates with clear flat bottoms (Corning, Sigma-Aldrich) 24 hr before the experiment. A 12-point semi-logarithmic dilution series of compounds was made starting at 30 μM not to exceed 0.1% DMSO after final dilution into the growth media. Viability assays were conducted over the course of 24 hr. Cell viability was determined using CellTiter-Blue (Promega) following the manufacturer's instructions. […] Experiments were done in triplicate, and mean values were computed for each data point.

Molecules are shown by their SMILES. Values joined by “and” are separate entries in the source; they are usually repeats but may differ in a detail not shown here. Equal values may be shown once.

As for `CSc1ccc(NC(=O)Nc2ccc(Nc3nccc(Nc4cc(C5CC5)[nH]n4)n3)cc2)cc1` [IPA], under “IPA + 1 μM GSK2606414”, the “LD50 cell viability in the presence of 1 μM GSK” value was 6.21 µM and 6.2 µM. Also, the LD50 cell viability (IPA alone) is 0.82 µM and 0.8 µM.

The record behind these values is paper PMC4436593, “Endoplasmic reticulum stress-independent activation of unfolded protein response kinases by a small molecule ATP-mimic” (eLife, 2015).
